Laboratory results taken from patent US4267180A, “Novel antibacterial amide compounds and process means for producing the same” (Warner-Lambert Company, priority 1980, dated 1981).

Key:
Assay in all cases: Minimal Inhibitory Concentration, in vitro
Type in all cases: cell-based
Design in all cases: unit not given here
[1] = tested on: Enterobacter Cloacae IMM-11
Excerpt: (§1) The compounds of the invention are new chemical compounds that are useful as pharmacological agents and especially as broad spectrum antibacterial agents. They are active in vitro against strains of both gram-positive and gram-negative bacteria.
(§2) Minimal Inhibitory Concentration

Proteus Vulgaris 1810 = tested on: Proteus Vulgaris 1810
Excerpt: as §1, §2

[2] = tested on: Pseudomonas Aeruginosa #28
Excerpt: as §1, §2

[3] = tested on: Klebsiella Pneumoniae MGH-2
Excerpt: as §1, §2

[4] = tested on: Pseudomonas Aeruginosa UI-18
Excerpt: as §1, §2

Staph Aureus UC-76 = tested on: Staph Aureus UC-76
Excerpt: as §1, §2

[5] = tested on: Serratia Marcescens IMM-16
Excerpt: as §1, §2

CC(=O)NCCC(=O)Nc1ccc(-c2ncc(C(=O)N[C@@H](C(=O)N[C@@H]3C(=O)N4[C@@H]3SC(C)(C)[C@@H]4C(=O)O)c3ccc(O)cc3)c(O)n2)cc1 [N-Acetyl-beta-Alanyl, N-[2-[4-(N-Acetyl-beta-alanylamino)phenyl]-4-hydroxy-5-pyrimidinylcarbonyl]amoxicillin]
Minimal Inhibitory Concentration [1]: 6.3
Minimal Inhibitory Concentration (Proteus Vulgaris 1810): 0.8
Minimal Inhibitory Concentration [2]: 0.8
Minimal Inhibitory Concentration [3]: 25
Minimal Inhibitory Concentration [4]: 0.8
Minimal Inhibitory Concentration (Staph Aureus UC-76): 0.4
Minimal Inhibitory Concentration [5]: 6.3

CC(=O)NC(C)(C)C(=O)Nc1ccc(-c2ncc(C(=O)N[C@@H](C(=O)N[C@@H]3C(=O)N4[C@@H]3SC(C)(C)[C@@H]4C(=O)O)c3ccc(O)cc3)c(O)n2)cc1 [N-Acetylamino Isobutyryl, N-[2-[4-(alpha-Acetamidoisobutyrylamino)phenyl]-4-hydroxy-5-pyrimidinylcarbonyl]amoxicillin]
Minimal Inhibitory Concentration [1]: 6.3
Minimal Inhibitory Concentration (Proteus Vulgaris 1810): 0.4
Minimal Inhibitory Concentration [2]: 0.8
Minimal Inhibitory Concentration [3]: > 50
Minimal Inhibitory Concentration [4]: 0.8
Minimal Inhibitory Concentration (Staph Aureus UC-76): 1.6
Minimal Inhibitory Concentration [5]: 12.5

CC1(C)S[C@@H]2[C@H](NC(=O)[C@H](NC(=O)c3cnc(-c4ccc(NC(=O)CNC(N)=O)cc4)nc3O)c3ccc(O)cc3)C(=O)N2[C@H]1C(=O)O [N-Carbamoyl Glycyl, N-[2-[4-(N-Carbamoylglycylamino)phenyl]-4-hydroxy-5-pyrimidinylcarbonyl]amoxicillin]
Minimal Inhibitory Concentration [1]: 25
Minimal Inhibitory Concentration (Proteus Vulgaris 1810): 3.1
Minimal Inhibitory Concentration [2]: 0.8
Minimal Inhibitory Concentration [3]: 50
Minimal Inhibitory Concentration [4]: 1.6
Minimal Inhibitory Concentration (Staph Aureus UC-76): 0.8
Minimal Inhibitory Concentration [5]: 25

CCC(=O)N[C@@H](C)C(=O)Nc1ccc(-c2ncc(C(=O)N[C@@H](C(=O)N[C@@H]3C(=O)N4[C@@H]3SC(C)(C)[C@@H]4C(=O)O)c3ccc(O)cc3)c(O)n2)cc1 [N-Propionyl-L-Alanyl, N-[2-[4-(N-Propionyl-L-alanylamino)phenyl]-4-hydroxy-5-pyrimidinylcarbonyl]amoxicillin]
Minimal Inhibitory Concentration [1]: 3.1
Minimal Inhibitory Concentration (Proteus Vulgaris 1810): 3.1
Minimal Inhibitory Concentration [2]: 1.6
Minimal Inhibitory Concentration [3]: 50
Minimal Inhibitory Concentration [4]: 0.8
Minimal Inhibitory Concentration (Staph Aureus UC-76): 0.8
Minimal Inhibitory Concentration [5]: 12.5

N-[2-[4-(N-Acetyl-DL-glutaminylamino)phenyl]-4-hydroxy-5-pyrimidinylcarbonyl]amoxicillin [N-Acetyl-L-Glutaminyl]
Minimal Inhibitory Concentration [1]: 12.5
Minimal Inhibitory Concentration (Proteus Vulgaris 1810): 0.8
Minimal Inhibitory Concentration [2]: 3.1
Minimal Inhibitory Concentration [3]: > 50
Minimal Inhibitory Concentration [4]: 3.1
Minimal Inhibitory Concentration (Staph Aureus UC-76): 3.1
Minimal Inhibitory Concentration [5]: 25
